Biological target: H2-Db molecule (Mus musculus, UniProt P01899)
Experiment: Peptide binding affinity assay on TAP-deficient RMA-S cells (anti-H-2Db staining, flow cytometry)
Format: cell-based
Conditions: 3 x 10^5 cells/well, peptide 1, 5, 10 μM, 4 h at 37 °C, anti-H-2Db antibody, flow cytometry MFI, triplicate
Procedure: Peptide binding affinity to H2-Db molecule was performed for each selected peptide. Tap-deficient mouse derived H-2Db RMA-S cells were cultured for 24 h at 26 °C to accumulate empty MHC-I molecules on the cell surface. Cells were washed in serum-free medium and incubated at 3 × 10^5 cells/well with varying concentrations of peptides (1 μM, 5 μM, 10 μM) for 4 h at 37 °C with 5% CO2. Cells were harvested, washed with phosphate-buffered saline (1 × PBS; Gibco Life Technologies), stained with anti-H-2Db fluorescent monoclonal antibody (cat. 1157535; SONY) and analyzed by flow cytometry. All the experiments were performed in triplicate.
In order to experimentally confirm the binding of heteroclitic peptides to H-2 Db molecule, the H-2 Db positive RMA-S cell line was loaded with different concentrations (1 μM, 5 μM, 10 μM) of selected heteroclitic peptides modified in p4 with a predicted affinity higher than the wt peptide.

Chain of H2-Db molecule (P01899 whole entry, looked up): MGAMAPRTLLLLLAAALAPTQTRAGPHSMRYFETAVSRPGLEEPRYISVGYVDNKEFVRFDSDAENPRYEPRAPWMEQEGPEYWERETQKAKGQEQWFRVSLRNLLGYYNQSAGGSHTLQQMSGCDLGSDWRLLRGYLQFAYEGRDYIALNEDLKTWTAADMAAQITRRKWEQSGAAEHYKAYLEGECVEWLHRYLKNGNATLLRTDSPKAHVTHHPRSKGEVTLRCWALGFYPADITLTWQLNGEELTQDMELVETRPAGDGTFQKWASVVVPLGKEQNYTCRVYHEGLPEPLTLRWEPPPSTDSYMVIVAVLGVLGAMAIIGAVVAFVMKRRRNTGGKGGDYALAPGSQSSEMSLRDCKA

Sequence	Binding to H-2Db compared with the wt peptide (in words)
RAHWNIVTF [RAHWNIVTF (MUT418), heteroclitic HPV-E7 peptide, Trp at p4]	strongest binding
SVYCFFVWL [SVYCFFVWL (MUT41), heteroclitic Trp2 peptide, Cys at p4]	binding lower than the wt
SVYEFFVWL [SVYEFFVWL (MUT42), heteroclitic Trp2 peptide, Glu at p4]	binding lower than the wt
SVYWFFVWL [SVYWFFVWL (MUT417), heteroclitic Trp2 peptide, Trp at p4]	binding lower than the wt
